From patent US20190374563A1, “TREATMENT OF KLEBSIELLA PNEUMONIAE INFECTIONS WITH ANTIBACTERIAL AMINOGLYCOSIDE COMPOUNDS” (Achaogen, Inc., priority 2009, published 2019)

What was measured:
Format in all cases: cell-based
[1] = tested on: E. coli ATCC 25922 (AECO001); experiment: MIC assay, CLSI broth microdilution; set-up: MIC AECO001: unit not given here; details: Table 3; E. coli ATCC25922
In short: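 Broth microdilution per CLSI M7-A7, with serial two-fold compound dilutions in Mueller Hinton Broth mixed 1:1 with inoculum. Colonies from a previous-day agar plate were suspended in saline to a final 5×10^5 CFU/mL. Plates were incubated 20 hours at 35° C. in ambient air.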

[2] = tested on: A. calcoaceticus AACA005, AAC(6′)-I; experiment: MIC assay, aminoglycoside resistant strain; set-up: unit not given beside the values; details: Table 3; A. calcoaceticus AAC(6′)-I
Procedure: (§1) Minimum inhibitory concentrations (MIC) were determined by reference Clinical and Laboratory Standards Institute (CLSI) broth microdilution methods per M7-A7 [2006]. Quality control ranges utilizing E. coli ATCC 25922, P. aeruginosa ATCC 27853 and S. aureus ATCC 29213, and interpretive criteria for comparator agents were as published in CLSI M100-S17 [2007]. Briefly, serial two-fold dilutions of the test compounds were prepared at 2× concentration in Mueller Hinton Broth. The compound dilutions were mixed in 96-well assay plates in a 1:1 ratio with bacterial inoculum. The inoculum was prepared by suspension of a colony from an agar plate that was prepared the previous day. Bacteria were suspended in sterile saline and added to each assay plate to obtain a final concentration of 5×10^5 CFU/mL. The plates were incubated at 35° C. for 20 hours in ambient air.
(§2) These MIC assays were conducted following the same protocol as set forth in Example 110. As shown, substituted sisomicin derivatives with groups other than methyl at the 6′-position have improved activity against strains expressing the AAC6′-modifying enzymes.

[3] = tested on: E. coli AECO040, AAC(6′)-I; experiment: MIC assay, aminoglycoside resistant strain; set-up: unit not given beside the values; details: Table 3; E. coli AAC(6′)-I
Procedure: as §1, §2

Structure (SMILES)	MIC AECO001 [1]	MIC AACA005 [2]	MIC AECO040 [3]
CN[C@@H]1[C@@H](O)[C@@H](O[C@@H]2C(O)[C@H](O[C@H]3OC(CNCC4CC4)=CC[C@H]3N)[C@@H](N)C[C@H]2N)OC[C@]1(C)O (stereo partly drawn) [Mono-substituted Compound 2]	1	4	1
CN[C@@H]1C(O)[C@@H](O[C@@H]2[C@@H](O)[C@H](OC3OC(CN)=CC[C@H]3N)[C@@H](N)C[C@H]2NC(=O)C2(O)CNC2)OC[C@]1(C)O (stereo partly drawn) [Mono-substituted Compound 7]	1	32	4
CN[C@@H]1C(O)[C@@H](O[C@@H]2[C@@H](O)[C@H](OC3OC(CN)=CC[C@H]3N)[C@@H](N)C[C@H]2NC(=O)[C@@H](O)CN)OC[C@]1(C)O (stereo partly drawn) [Mono-substituted Compound 5]	0.5	32	8
CNCC1=CC[C@@H](N)[C@@H](O[C@H]2C(O)[C@@H](O[C@H]3OC[C@](C)(O)[C@H](NC)[C@H]3O)[C@H](N)C[C@@H]2N)O1 (stereo partly drawn) [Mono-substituted Compound 1]	1	2	>64
CN[C@@H]1[C@@H](O)[C@@H](O[C@@H]2C(O)[C@H](O[C@H]3OC(CNCCCN)=CC[C@H]3N)[C@@H](N)C[C@H]2N)OC[C@]1(C)O (stereo partly drawn) [Mono-substituted Compound 4]	2	1	16
CN[C@@H]1C(O)[C@@H](O[C@@H]2[C@@H](O)[C@H](OC3OC(CN)=CC[C@H]3N)[C@@H](N)C[C@H]2NC(=O)[C@@H](O)CCN)OC[C@]1(C)O (stereo partly drawn) [Mono-substituted Compound 6]	0.5	16	4
CN[C@@H]1[C@@H](O)[C@@H](O[C@@H]2C(O)[C@H](O[C@H]3OC(CNCC4CCNCC4)=CC[C@H]3N)[C@@H](N)C[C@H]2N)OC[C@]1(C)O (stereo partly drawn) [Mono-substituted Compound 3]	0.5	0.5	0.25
CN[C@@H]1[C@@H](O)[C@@H](O[C@@H]2[C@@H](O)[C@H](O[C@H]3OC(CN)=CC[C@H]3N)[C@@H](N)C[C@H]2N)OC[C@]1(C)O [Sisomicin]	0.5	32	32
